Where “and” joins values, the source holds several entries; their conditions need not be identical. Identical values can stand only once.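 Tested at 5 concentrations; 48 h exposure; 96-well plates; endpoints linearly interpolated, else capped at highest concentration. GI50 marks 50% less growth. TGI denotes the concentration required for complete inhibition of growth.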
Experiments:
Assay in all cases: DTP human tumour cell line panel, 48 h
EKVX NSCLC = test system: EKVX NSCLC
HCT-15 colon = test system: HCT-15 colon
HOP-62 NSCLC = test system: HOP-62 NSCLC
IGROV1 ovarian = test system: IGROV1 ovarian
K-562 leukemia = test system: K-562 leukemia
SF-539 CNS = test system: SF-539 CNS
SK-MEL-5 melanoma = test system: SK-MEL-5 melanoma
SR leukemia = test system: SR leukemia
SW-620 colon = test system: SW-620 colon
UACC-62 melanoma = test system: UACC-62 melanoma

Row | SMILES | GI50 (EKVX NSCLC) [µM] | TGI (EKVX NSCLC) [µM] | GI50 (HCT-15 colon) [µM] | TGI (HCT-15 colon) [µM] | GI50 (HOP-62 NSCLC) [µM] | TGI (HOP-62 NSCLC) [µM] | GI50 (IGROV1 ovarian) [µM] | TGI (IGROV1 ovarian) [µM] | TGI (K-562 leukemia) [µM] | GI50 (SF-539 CNS) [µM] | TGI (SF-539 CNS) [µM] | GI50 (SK-MEL-5 melanoma) [µM] | TGI (SK-MEL-5 melanoma) | GI50 (SR leukemia) [µM] | TGI (SR leukemia) [µM] | GI50 (SW-620 colon) [µM] | TGI (SW-620 colon) [µM] | GI50 (UACC-62 melanoma) [µM] | TGI (UACC-62 melanoma) [µM] | GI50 (K-562 leukemia) [µM]
1 | CCc1nc(N)nc(N)c1-c1ccc(Cl)cc1 | 5.7 | > 100 | 4.74 | > 100 | 26.7 | > 100 | 11.4 | > 100 | > 26.5 | 9.43 | > 100 | 4.14 | > 100 µM and 19.8 µM | 18.7 | > 100 | 3.99 | > 100 | 3.93 | > 100 | –
2 | O=c1[nH]nc(-c2ccccc2)c(-c2ccccc2)c1-n1nc(-c2ccccc2)c2ccccc2c1=O | – | > 100 | – | > 100 | – | > 100 | – | > 100 | > 100 | – | > 100 | – | > 100 µM | – | > 100 | – | > 100 | – | > 100 | –
3 | COc1c(O)c2ccccc2c2cc(O)ccc12 | – | 32.9 | – | 20.1 | – | 31.3 | – | 21.6 | 21.9 | – | 9.88 | – | 5.59 µM | – | > 68.4 | – | 6.69 | – | 6.1 | –
4 | COc1ccccc1/C=C1\COc2ccc(O)c(O)c2C1=O | 3 | 46.1 | 0.823 | 4.54 | 3.1 | 9.54 | 1.46 | 4.21 | 14.1 | 1.52 | 3.35 | 1.56 | 3.18 µM | 0.407 | 11.9 | 1.48 | 4.2 | 1.59 | 3.29 | 0.671
5 | COc1ccc([C@H]2c3cc(OC)c(OC)cc3C=C(C=O)C2CO)cc1OC (some centres not stated) | 5.29 | > 100 | 5.03 | > 100 | 4.79 | > 100 | 2.08 | 8.89 | > 100 | 3.33 | > 100 | 3.51 | > 100 µM | 4.95 | > 100 | 3.49 | > 100 | 4.32 | > 100 | 6.03
6 | COC(=O)C1=CC(=O)C(C(=O)Nc2ccc(OC)cc2)C(c2ccccc2)O1 (configuration not stated) | – | > 100 | – | > 100 | – | 50.9 | – | 51 | > 100 | – | 40.3 | – | > 73.7 µM | – | > 100 | – | > 100 | – | > 89.6 | –
7 | COc1cc[c]([Hg][Cl])cc1 | 9.51 | 22.8 | 1.08 | 2.36 | 20.4 | 37.8 | 1.53 | 3.92 | 6.73 | 3.3 | 11.1 | 2.71 | 11.1 µM | 0.245 | 4.13 | 1.54 | 3.18 | 4.09 | 14.9 | 1.84
8 | Clc1ccc(Cl)c(N/N=C\c2c[nH]c3ccccc23)c1 | 2.36 | 15.5 | 8.81 | > 100 | 15.2 | 28.4 | 0.0611 | 0.623 | 17.7 | 8.16 | 21 | 10 | 23.1 µM | 4.14 | 32.2 | 10.3 | 24.6 | 9.92 | 22.6 | 1.83
9 | COC(=O)C1=Cc2cc3c(cc2[C@H](c2ccc4c(c2)OCO4)C1C(=O)OC)OCO3 (some centres not stated) | – | > 100 | – | > 100 | – | > 100 | – | > 100 | > 100 | – | > 100 | – | > 100 µM | – | > 100 | – | > 100 | – | > 100 | –
10 | CC(=O)O[C@@H]1C=CC(=O)C2(CC(=O)O[C@@H]2/C=C(\C)CCC=C(C)C)C1 (some centres not stated) | 3.28 | 7.87 | 0.285 | 1.28 | 1.36 | 3.4 | 0.965 | 2.47 | – | 0.591 | 1.44 | 1.31 | 3.1 µM | 0.0339 | 31.6 | 0.436 | – | 1.12 | 2.36 | 0.449
11 | CCN(CC)CCN(C)CC(C)(C)C(=O)/C=C/c1ccccc1 | – | 26.1 | – | 28.4 | – | 37 | – | 36.5 | > 100 | – | 19 | – | 27.3 µM | – | 45.5 | – | 24.2 | – | 26.9 | –
12 | CN(C)C1(C#N)CCC2(CC1)OCCO2 | – | > 100 | – | > 100 | – | > 100 | – | > 100 | > 100 | – | > 100 | – | > 100 µM | – | > 100 | – | > 100 | – | > 100 | –
13 | O=C(Nc1ccc(Cl)c(Cl)c1)Nc1ccc(Cl)c([N+](=O)[O-])c1 | 1.04 | 7.35 | 0.845 | 3.56 | 2.06 | 6.04 | 1.61 | 6.4 | 19 | 2.17 | 5.51 | 2 | 5.08 µM | 2.58 | > 25 | 1.1 | 4.23 | 1.13 | 4.15 | 1.06
14 | O=c1c(Cl)nsnc1Cl | – | 58.2 | – | 51.1 | – | 34.5 | – | 32.4 | 3.58 | – | 28.1 | – | 32.8 µM | – | 4.43 | – | 31.5 | – | 33.4 | –
15 | COc1ccc(NC(=O)CC/C(CC(=O)c2ccco2)=N/Nc2ccc([N+](=O)[O-])cc2[N+](=O)[O-])cc1 | – | > 100 | – | > 100 | – | > 100 | – | > 100 | > 100 | – | > 100 | – | > 100 µM | – | 64.4 | – | > 100 | – | > 100 | –
16 | C=CCCc1cc(OC)ccc1CN(C)C(C)(C)CO | – | > 100 | – | > 100 | – | > 100 | – | > 100 | > 100 | – | > 100 | – | > 100 µM | – | > 100 | – | > 100 | – | > 100 | –

Reference: PubChem BioAssay (NCI)
